The values below come from patent publication US9745295B2, “Thiazole-substituted aminoheteroaryls as spleen tyrosine kinase inhibitors” (Merck Sharp & Dohme Corp., priority 2013, dated 2017).

pIC50: −log10 of the molar value.

For orientation: pIC50 means the IC50 on a negative log10 scale, so that one unit is a factor of ten.

This test concerns the target T1, recombinant human GST-SYK (Homo sapiens, UniProt P43405).
T1 construct: purchased Carna Biosciences 08-176
Nature of the test: Homogeneous Time-Resolved Fluorescence (HTRF) assay for the recombinant human Syk enzyme. The class given is biochemical. The conditions noted are these: recombinant human GST-SYK 5 pM, ATP 25 μM, read-out: rhSYK IC50. The procedure: Homogeneous Time-Resolved Fluorescence (HTRF) Assay for the Recombinant Human Syk Enzyme
A recombinant GST-hSYK fusion protein was used to measure potency of compounds to inhibit human Syk activity. The recombinant human GST-SYK (Carna Biosciences #08-176) (5 pM final concentration) was incubated with various concentrations of the inhibitor diluted in DMSO (0.1% final concentration) for 10 minutes at room temperature in 15 mM Tris-HCl (pH 7.5), 0.01% tween 20, 2 mM DTT in 384 well plate format. To initiate the reaction the biotinylated substrate peptide (250 nM final concentration) that contains the phosphorylation site for Syk was added with magnesium (5 mM final concentration) and ATP (25 μM final concentration). Final volume of the reaction was 10 μL. Phosphorylation of the peptide was allowed to proceed for 45′ at room temperature. To quench the reaction and detect the phosphorylated product, 2 nM of a Europium-anti-phosphotyrosine antibody (Perkin Elmer #AD0161) and 70 nM SA-APC (Perkin-Elmer #CR130-100) were added together in 15 mM Tris pH 7.5, 40 mM EDTA, 0.01% tween 20. Final volume of the quenching solution was 10 μL.
The resulting HTRF signal was measured after 30 minutes on an EnVision (Perkin-Elmer) reader using a time-resolved fluorescence protocol. Table A below lists activities as IC50 values (nM) for representative compounds of the invention.
(In TR-FRET formats the signal depends on donor and acceptor labels being close together.)
Regarding `COc1cc(Nc2nccc(C(F)(F)F)n2)cc(-c2cnc(C(C)(O)[C@H]3CC[C@H](C(=O)O)CC3)s2)n1` (single isomer, unassigned) [Example 4.21, (trans)-4-((R or S)-1-hydroxy-1-[5-(6-methoxy-4-{[4-(trifluoromethyl)pyrimidin-2-yl]amino}pyridin-2-yl)-1,3-thiazol-2-yl]ethyl}cyclohexane carboxylic acid], the pIC50 was 8.67.

As to `CCOc1cc(Nc2nccc(C(F)(F)F)n2)cc(-c2cnc(C3(O)CCC3)s2)n1` [Example 4.1, 1-(5-(6-Ethoxy-4-((4-(trifluoromethyl)pyrimidin-2-yl)amino)pyridin-2-yl)thiazol-2-yl)cyclobutanol], the pIC50 was 6.95.

In the case of `COc1ccnc(Nc2cc(C)nc(-c3cnc(C(C)(O)[C@H]4CC[C@H](C(=O)O)CC4)s3)c2)n1` (single isomer, unassigned) [Example 4.9, (trans)-4-((R or S)-1-hydroxy-1-(5-{4-[(4-methoxypyrimidin-2-yl)amino]-6-methylpyridin-2-yl}-1,3-thiazol-2-yl)ethyl]cyclohexane carboxylic acid], the pIC50 is 9.23.

As for `CCCCOC(=O)[C@H]1CC[C@H](C(C)(O)c2ncc(-c3cc(Nc4nccc(C(F)(F)F)n4)cc(C)n3)s2)CC1` (single isomer, unassigned) [Example 4.6, butyl (trans)-4-((R or S)-1-hydroxy-[5-(6-methyl-4-{[4-(trifluoromethyl)pyrimidin-2-yl]amino}pyridin-2-yl)-1,3-thiazol-2-yl]ethyl}cyclohexane carboxylate], the pIC50 was 6.43.

`Cc1cc(Nc2cc(C(F)(F)F)ccn2)nc(-c2cnc(C3(O)CCC3)s2)n1` [Example 4.5, 1-[5-(4-methyl-6-{[4-(trifluoromethyl)pyridin-2-yl]amino}pyrimidin-2-yl)-1,3-thiazol-2-yl]cyclobutanol]: the pIC50 was 8.36.

As to `Cc1cc(Nc2cc(C(F)(F)F)ccn2)nc(-c2cnc(C3(O)CCC(C(=O)O)C(C)(C)C3)s2)n1` (single isomer, unassigned) [Example 1.11, (1S,4R or 1R,4S)-4-hydroxy-2,2-dimethyl-4-[5-(4-methyl-6-{[4-(trifluoromethyl)pyridin-2-yl]amino}pyrimidin-2-yl)-1,3-thiazol-2-yl] cyclohexane-carboxylic acid], the pIC50 was 9.91.

For the compound `Cc1cc(Nc2cc(C(F)(F)F)ccn2)nc(-c2cnc(C3(O)CCC(C(=O)O)C(C)(C)C3)s2)n1` (single isomer, unassigned) [Example 1.12, (1S,4R or 1R,4S)-4-hydroxy-2,2-dimethyl-4-[5-(4-methyl-6-{[4-(trifluoromethyl)pyridin-2-yl]amino}pyrimidin-2-yl)-1,3-thiazol-2-yl]cyclohexane-carboxylic acid], the pIC50 is 9.16.

As to `Cc1cc(Nc2cc(C(F)(F)F)ncn2)nc(-c2cnc([C@@]3(O)CC[C@H](C(N)=O)[C@H](C)C3)s2)c1` (relative stereo) [Example 1.19, rel-(1S,2R,4R or S)-4-hydroxy-2-methyl-4-[5-(4-methyl-6-{[6-(trifluoromethyl)pyrimidin-4-yl]amino}pyridin-2-yl)-1,3-thiazol-2-yl]cyclohexane-carboxamide], the pIC50 is 9.38.

As for `Cc1cc(Nc2ncnc(C)n2)cc(-c2cnc([C@@]3(O)CC[C@H](C(=O)O)C(C)(C)C3)s2)c1` [Example 2.2, (1S,4R)-4-hydroxy-2,2-dimethyl-4-(5-{3-methyl-5-[(4-methyl-1,3,5-triazin-2-yl)amino]phenyl}-1,3-thiazol-2-yl)cyclohexanecarboxylic acid], the pIC50 is 7.28.

On to `Cc1cc(-c2cnc(C3(O)CCC3)s2)nc(Nc2cc(C(F)(F)F)ccn2)n1` [Example 4.4, 1-[5-(6-methyl-2-{[4-(trifluoromethyl)pyridin-2-yl]amino}pyrimidin-4-yl)-1,3-thiazol-2-yl]cyclobutanol], for which the pIC50 was 7.36.

In the case of `Cc1cc(Nc2nccc(C(F)(F)F)n2)cc(-c2cnc(C(C)(O)c3ccc(C(=O)O)cc3)s2)n1` (single isomer, unassigned) [Example 1.21, (R or S)-4-(1-hydroxy-1-(5-(6-methyl-4-((4-(trifluoromethyl)pyrimidin-2-yl)amino)pyridin-2-yl)thiazol-2-yl)ethyl)benzoic acid], the pIC50 is 8.23.

As to `CC(O)(c1ncc(-c2cncc(Nc3cc(C(F)(F)F)ccn3)n2)s1)[C@H]1CC[C@H](C(=O)O)CC1` (single isomer, unassigned) [Example 4.12, (trans)-4-((R or S)-1-hydroxy-1-[5-(6-{[4-(trifluoromethyl)pyridin-2-yl]amino}pyrazin-2-yl)-1,3-thiazol-2-yl]ethyl}cyclohexane carboxylic acid], the pIC50 is 8.74.

`OC1(c2ncc(-c3cccc(Nc4cnccn4)n3)s2)CCC1` [Example 4.2, 1-{5-[6-(pyrazin-2-ylamino)pyridin-2-yl]-1,3-thiazol-2-yl}cyclobutanol]: the pIC50 is 7.45.

For `Cc1cc(Nc2cc(C(F)(F)F)ncn2)nc(-c2cnc([C@@]3(O)CC[C@H](C(=O)O)[C@H](C)C3)s2)c1` (single isomer, unassigned) [Example 1.4, rel-(1S,2R,4R or S)-4-hydroxy-2-methyl-4-[5-(4-methyl-6-{[6-(trifluoromethyl)pyrimidin-4-yl]amino}pyridin-2-yl)-1,3-thiazol-2-yl]cyclohexane-carboxylic acid], the pIC50 was 9.32.

On to `Cc1cc(Nc2cc(C(F)(F)F)ncn2)nc(-c2cnc(C3(O)CCC(C(N)=O)C(C)(C)C3)s2)c1` (single isomer, unassigned) [Example 3.5, (1S,4R or 1R,4S)-4-hydroxy-2,2-dimethyl-4-[5-(4-methyl-6-{[6-(trifluoromethyl)pyrimidin-4-yl]amino}pyridin-2-yl)-1,3-thiazol-2-yl]cyclohexanecarboxamide], for which the pIC50 is 9.25.

`Cc1cc(Nc2nccnn2)cc(-c2cnc(C3(O)CCC3)s2)c1` [Example 3.2, 1-{5-[3-methyl-5-(1,2,4-triazin-3-ylamino)phenyl]-1,3-thiazol-2-yl}cyclobutanol]: the pIC50 is 6.00.

For the compound `CC(O)(c1ncc(-c2cc(Nc3nccc(C(F)(F)F)n3)cc(Cl)n2)s1)[C@H]1CC[C@H](C(=O)O)CC1` (single isomer, unassigned) [Example 4.23, (trans)-4-((R or S)-1-[5-(6-chloro-4-{[4-(trifluoromethyl)pyrimidin-2-yl]amino}pyridin-2-yl)-1,3-thiazol-2-yl]-1-hydroxyethyl} cyclohexanecarboxylic acid], the pIC50 was 8.28.

`Cc1ccnc(Nc2ccc(-c3cnc(C4(O)CCC(C(=O)O)CC4)s3)cc2C)c1` (stereo not drawn) [Example 4.13, cis-4-hydroxy-4-(5-{3-methyl-4-[(4-methylpyridin-2-yl)amino]phenyl}-1,3-thiazol-2-yl)cyclohexanecarboxylic acid]: the pIC50 is 7.36.

As for `Cc1cc(Nc2cccnn2)nc(-c2cnc(C3(O)CCCc4cc(C(=O)O)ccc43)s2)c1` (single isomer, unassigned) [Example 2.8, (R or S)-5-hydroxy-5-{5-[4-methyl-6-(pyridazin-3-ylamino)pyridin-2-yl]-1,3-thiazol-2-yl}-5,6,7,8-tetrahydronaphthalene-2-carboxylic acid], the pIC50 is 7.33.
